In patent publication US20180228722A1, “UNIT DOSE PACKAGES, COMPOSITIONS, AND TREATMENT REGIMENS TO DELIVER PRO-[…] S[…] KERATIN SURFACES” (ELC Management LLC, priority 2015, published 2018):

What was measured:
human neutrophils [1] = assay: Release of Pro-Resolving Lipid Mediator Markers (15-HETE, 12-HETE, 14-HDOHE, 18-HEPE, 17-HDOHE) from PMA/A23187-stimulated neutrophils, LC-MS/MS of supernatants; assay type: cell-based
Method: (§1) Ingredients were tested to assess the ability to promote Pro-Resolution Pathway Stimulators in human neutrophils. The following Inflammatory Metabolites were measured: PGE2 and LTB4. The Inflammatory Metabolite Marker, 5-HETE, was measured. Also measured were the Pro-Resolving Lipid Mediator Markers 15-HETE, 12-HETE, 14-HDOHE, 18-HEPE, and 17-HDOHE. PGE2, LTB4, and 5-HETE are indicators of inflammation. Increases in cellular secretion of PGE2, LTB4, or 5-HETE are seen in response to inflammation precipitating conditions. Active ingredients that cause a reduction in cellular concentration of PGE2, LTB4, or 5-HETE are anti-inflammatory in nature. Cellular secretion of Pro-Resolving Lipid Mediators occurs in the inflammation resolution phase. Active ingredients that stimulate cellular secretion of Pro-Resolving Lipid Mediators (as measured by measuring Pro-Resolving Lipid Mediator Markers) help to promote resolution of inflammation.
(§2) Then, the inflammatory response was initiated by adding an inflammation precipitating ingredient, in particular PMA/[…] which is a mixture of 5-(methylamino)-2-({2R,3R,6S,8S,9R,11R)-3,9,11-trimethyl-8-[(1S)-1-methyl-2-oxo-2-(1H-pyrrol-2-yl)ethyl]-1,7-dioxaspiro[5.5]undec-2-yl}methyl)-1,3-benzoxazole-4-carboxylic acid and PMA (phorbol myristate acetate), at a concentration of 0.05 μm and 1 μm respectively to each well. After one hour the supernatants were collected and stored at −80° C. until assayed.
(§3) Cell supernatants were assayed for Inflammatory Metabolites (PGE2, LBT4), Inflammatory Metabolite Markers (5-HETE), and Pro-Resolving Lipid Mediator Markers 15-HETE, 12-HETE, 14-HDOHE, 18-HEPE, and 17-HDOHE. More specifically, analysis was performed by extraction using an Oasis HLB 96-well plate (Waters) according to manufacturer's directions.
(§4) Suitable Pro-Resolving Activators are ingredients that show an increase in cellular concentration of Pro-Resolving Lipid Mediator Markers 15-HETE, 12-HETE, 14-HDOHE, 18-HEPE, and 17-HDOHE alone or in combination, when cells exposed to an inflammation precipitating condition either before or after exposure to the active.

human neutrophils [2] = assay: Release of Inflammatory Metabolites (PGE2, LTB4) and Inflammatory Metabolite Marker (5-HETE) from PMA/A23187-stimulated neutrophils, LC-MS/MS of supernatants; assay type: cell-based; details: for net decrease in cellular concentration of Inflammatory Metabolites and Inflammatory Metabolite Markers (aggregate): vs control cells subjected only to inflammation precipitating condition; for decrease in cellular concentration of 5-HETE / decrease in cellular concentration of LTB4 / decrease in cellular concentration of PGE2: vs PMA/A23187 control; for decrease in Inflammatory Metabolites and Inflammatory Metabolite Markers (aggregate): vs control cells exposed to inflammation precipitating condition
Method: as §1, §2, §3, §4

Which results are given for resveratrol salicylate?
increase in cellular concentration of Pro-Resolving Lipid Mediator Markers, in the aggregate (human neutrophils [1]; 0.43 ug/ml): not being as effective; increase in cellular concentration of Pro-Resolving Lipid Mediator Markers, in the aggregate (human neutrophils [1]; 4.3 ug/ml): 4%; increase in cellular concentration of Pro-Resolving Lipid Mediator Markers, in the aggregate (human neutrophils [1]; 43 ug/ml): 37%; decrease in cellular concentration of Inflammatory Metabolites and Inflammation Metabolite Markers in the aggregate (better than control) (human neutrophils [2]; 0.43 ug/ml): 87%; decrease in cellular concentration of Inflammatory Metabolites and Inflammation Metabolite Markers in the aggregate (better than control) (human neutrophils [2]; 4.3 ug/ml): 163%; decrease in cellular concentration of Inflammatory Metabolites and Inflammation Metabolite Markers in the aggregate (better than control) (human neutrophils [2]; 43 ug/ml): 257%

With O=C(O)c1ccccc1O [salicylic acid] as the molecule, how does the “change in cellular concentration of Pro-Resolving Lipid Mediators (aggregate)” value (human neutrophils [1]; 0.33 μg/ml, vs control cells) read?
Its value is “small increase”.

And the “change in cellular concentration of all Pro-Resolving Lipid Mediator Markers in the aggregate” value (human neutrophils [1]; 3.3 μg/ml, vs control cells)?
The value was “decreased”.

What about the “change in cellular concentration of Pro-Resolving Lipid Mediator Marker 15-HETE” value (human neutrophils [1]; 33 μg/ml, vs control cells) of the same molecule?
Its value is “decrease”.

And the “change in cellular concentration of all Pro-Resolving Lipid Mediator Markers in the aggregate” value (human neutrophils [1]; 33 μg/ml, vs control cells)?
The value was “decreased”.

And the “net decrease in cellular concentration of Inflammatory Metabolites and Inflammatory Metabolite Markers (aggregate)” value (“net decrease in cellular concentration” below) (human neutrophils [2]; 0.33 μg/ml (first of range 0.33 to 33 μg/ml))?
Its value is 29%.

What about the “decrease in cellular concentration of 5-HETE” value (from here on “decrease … of 5-HETE”) (human neutrophils [2]; 0.33 μg/ml) of the same molecule?
The value was 15%.

What about the “decrease in cellular concentration of LTB4” value (“decrease … of LTB4” for short) (human neutrophils [2]; 0.33 μg/ml) of the same molecule?
The value was 1%.

What about the “decrease in cellular concentration of PGE2” value (shortened to “decrease … of PGE2”) (human neutrophils [2]; 0.33 μg/ml) of the same molecule?
Its value is 19%.

What about the “net decrease in cellular concentration” value (human neutrophils [2]; 3.3 μg/ml (second of range 0.33 to 33 μg/ml)) of the same molecule?
Its value is 58%.

What about the “decrease … of 5-HETE” value (human neutrophils [2]; 3.3 μg/ml) of the same molecule?
The value was 20%.

And the “decrease … of LTB4” value (human neutrophils [2]; 3.3 μg/ml)?
The value was 12%.

And the “decrease … of PGE2” value (human neutrophils [2]; 3.3 μg/ml)?
The value was 28%.

And the “net decrease in cellular concentration” value (human neutrophils [2]; 33 μg/ml (third of range 0.33 to 33 μg/ml))?
The value was 46%.

What about the “decrease … of 5-HETE” value (human neutrophils [2]; 33 μg/ml) of the same molecule?
Its value is 27%.

And the “decrease … of LTB4” value (human neutrophils [2]; 33 μg/ml)?
The value was 17%.

What about the “decrease … of PGE2” value (human neutrophils [2]; 33 μg/ml) of the same molecule?
Its value is 19%.

With Oc1ccc(C=Cc2cc(O)cc(O)c2)cc1 [resveratrol] as the molecule, how does the “% change of Pro-Resolving Lipid Mediator Markers, in the aggregate, compared to control” value (“% change” below) (human neutrophils [1]; 0.1 ug/ml) read?
Its value is −27%.

And the “% change” value (human neutrophils [1]; 1 ug/ml)?
The value was −16%.

What about the “% change” value (human neutrophils [1]; 10 ug/ml) of the same molecule?
The value was −10%.

And the “decrease in Inflammatory Metabolites and Inflammatory Metabolite Markers (aggregate)” value (human neutrophils [2]; 0.1 ug/ml)?
The value was 45%.

And the “decrease in Inflammatory Metabolites and Inflammatory Metabolite Markers (aggregate)” value (human neutrophils [2]; 1 ug/ml)?
The value was 59%.

What about the “decrease in Inflammatory Metabolites and Inflammatory Metabolite Markers (aggregate)” value (human neutrophils [2]; 10 ug/ml) of the same molecule?
Its value is 106%.
